Laboratory results published in EP0908457B1, “3-(1,2-benzisothiazol- and isoxazol-5-Y1)-2,4(1H,3H)-pyrimidinedione or thione and 3-(1,2-benzisothiazol- and isoxazol-5-y1)-4(3H)-pyrimidinone or thione herbicidal agents” (BASF AKTIENGESELLSCHAFT, priority 1997, dated 1999).

Key:
[1] = test system: Echinochloa oryzoides (Ard.) Fritsch.; test: Preemergence weed control under flooded paddy conditions, ECHORC (Watergrass (Calif.)); format: in vivo; conditions: preemergence, flooded paddy; for herbicidal effect rating, ECHORC: meaning of each grade not given here
Sagittaria pygmaea, L. = test: Preemergence weed control under flooded paddy conditions, SAGPY (Arrowhead (Pygmaea)); format: in vivo; conditions: preemergence, flooded paddy; for herbicidal effect rating, SAGPY: meaning of each grade not given here
Cyperus iria = test: Preemergence weed control under flooded paddy conditions, CYPIR (Rice Flatsedge); format: in vivo; conditions: preemergence, flooded paddy; for herbicidal effect rating, CYPIR: meaning of each grade not given here
[2] = test system: Oryza sativa, (L.) Tebonnet; test: Rice tolerance to post-transplant applications under flooded paddy conditions (Example 187), ORYSAT (Rice, Tebonnet); for herbicidal effect rating ORYSAT: meaning of each grade not given here
[3] = test system: Monochoria vaginalis, Presl.; test: Preemergence weed control under flooded paddy conditions, MOOVA (Monochoria); format: in vivo; conditions: preemergence, flooded paddy; for herbicidal effect rating, MOOVA: meaning of each grade not given here
[4] = test system: Cyperus serotinus, Rottb.; test: Preemergence weed control under flooded paddy conditions, CYPSE (Flatsedge); format: in vivo; conditions: preemergence; for herbicidal effect rating, CYPSE: meaning of each grade not given here
[5] = Rate 0.0320 kg/ha, rated 3-4 weeks after treatment
[6] = Rate 0.0620 kg/ha, rated 3-4 weeks after treatment
[7] = Rate 0.1250 kg/ha, rated 3-4 weeks after treatment
[8] = Rate 0.2500 kg/ha, rated 3-4 weeks after treatment
[9] = Rate 0.5000 kg/ha, rated 3-4 weeks after treatment
[10] = Rate 0.2500 kg/ha, rated three to four weeks after treatment
[11] = Rate 0.0320 kg/ha, rated three to four weeks after treatment
[12] = Rate 0.0620 kg/ha, rated three to four weeks after treatment
[13] = Rate 0.1250 kg/ha, rated three to four weeks after treatment
[14] = 0.0320 kg/ha, rated three to four weeks after treatment
[15] = 0.0620 kg/ha, rated three to four weeks after treatment
[16] = 0.1250 kg/ha, rated three to four weeks after treatment
[17] = 0.2500 kg/ha, rated three to four weeks after treatment
[18] = 0.0313 kg/ha, rated three to four weeks after treatment
[19] = 0.0625 kg/ha, rated three to four weeks after treatment

Compound: Cc1ccc(OC(C)C(=O)c2ccc(C)c(C)c2)c(-c2nsc3ccc(-n4c(=O)cc(C(F)(F)F)n(C)c4=O)cc23)c1 (stereo not drawn) [Example 542, 2,4(1H,3H)-Pyrimidinedione, 3-{3-{6-[1-(3,4-dimethylbenzoyl)ethoxy]-m-tolyl}-1,2-benzisothiazol-5-yl}-1-methyl-6-(trifluoromethyl)-]
- herbicidal effect rating, ECHORC [1, 5]: 1.7
- herbicidal effect rating, ECHORC [1, 6]: 2.7
- herbicidal effect rating, ECHORC [1, 7]: 4.3
- herbicidal effect rating, ECHORC [1, 8]: 8.0
- herbicidal effect rating, ECHORC [1, 9]: 9.0
- herbicidal effect rating, SAGPY (Sagittaria pygmaea, L.; [5]): 0.0
- herbicidal effect rating, SAGPY (Sagittaria pygmaea, L.; [6]): 0.0
- herbicidal effect rating, SAGPY (Sagittaria pygmaea, L.; [7]): 0.0
- herbicidal effect rating, SAGPY (Sagittaria pygmaea, L.; [8]): 0.0
- herbicidal effect rating, SAGPY (Sagittaria pygmaea, L.; [9]): 9.0
- herbicidal effect rating, CYPIR (Cyperus iria; [5]): 0.0
- herbicidal effect rating, CYPIR (Cyperus iria; [6]): 0.0
- herbicidal effect rating, CYPIR (Cyperus iria; [7]): 2.0
- herbicidal effect rating, CYPIR (Cyperus iria; [8]): 4.0
- herbicidal effect rating, CYPIR (Cyperus iria; [9]): 9.0
- herbicidal effect rating ORYSAT [2, 5]: 0.0
- herbicidal effect rating ORYSAT [2, 6]: 0.0
- herbicidal effect rating ORYSAT [2, 7]: 0.0
- herbicidal effect rating ORYSAT [2, 8]: 0.0
- herbicidal effect rating ORYSAT [2, 9]: 2.0
- herbicidal effect rating, MOOVA [3, 5]: 7.0
- herbicidal effect rating, MOOVA [3, 6]: 9.0
- herbicidal effect rating, MOOVA [3, 7]: 9.0
- herbicidal effect rating, MOOVA [3, 8]: 9.0
- herbicidal effect rating, MOOVA [3, 9]: 9.0
- herbicidal effect rating, CYPSE [4, 5]: 0.0
- herbicidal effect rating, CYPSE [4, 6]: 0.0
- herbicidal effect rating, CYPSE [4, 7]: 0.0
- herbicidal effect rating, CYPSE [4, 9]: 0.0

Compound: Cn1c(C(F)(F)F)cc(=O)n(-c2ccc3snc(CCBr)c3c2)c1=O [Example 260, 2,4(1H,3H)-Pyrimidinedione, 3-[3-(2-bromoethyl)-1,2-benzisothiazol-5-yl]-1-methyl-6-(trifluoromethyl)-]
- ECHORC herbicidal effect rating [1, 10]: 0.0
- SAGPY herbicidal effect rating (Sagittaria pygmaea, L.; [10]): 0.0
- CYPIR herbicidal effect rating (Cyperus iria; [10]): 0.0
- ORYSAT herbicidal effect rating [2, 10]: 0.0
- MOOVA herbicidal effect rating [3, 10]: 0.0
- CYPSE herbicidal effect rating [4, 10]: 0.0

Compound: Cn1c(C(F)(F)F)cc(=O)n(-c2ccc3snc(-c4ccccc4OCC(N)=O)c3c2)c1=O [Example 548, Acetamide, 2-{o-{5-[3,6-dihydro-3-methyl-2,6-dioxo-4-(trifluoromethyl)-1(2H)-pyrimidinyl]-1,2-benzisothiazol-3-yl}phenoxy}-]
- herbicidal effect rating, ECHORC [1, 5]: 2.9
- herbicidal effect rating, ECHORC [1, 6]: 3.7
- herbicidal effect rating, ECHORC [1, 7]: 4.9
- herbicidal effect rating, ECHORC [1, 8]: 9.0
- herbicidal effect rating, ECHORC [1, 9]: 6.0
- herbicidal effect rating, SAGPY (Sagittaria pygmaea, L.; [5]): 0.0
- herbicidal effect rating, SAGPY (Sagittaria pygmaea, L.; [6]): 0.0
- herbicidal effect rating, SAGPY (Sagittaria pygmaea, L.; [7]): 2.0
- herbicidal effect rating, SAGPY (Sagittaria pygmaea, L.; [8]): 4.0
- herbicidal effect rating, SAGPY (Sagittaria pygmaea, L.; [9]): 0.0
- herbicidal effect rating, CYPIR (Cyperus iria; [5]): 2.0
- herbicidal effect rating, CYPIR (Cyperus iria; [6]): 6.0
- herbicidal effect rating, CYPIR (Cyperus iria; [7]): 8.0
- herbicidal effect rating, CYPIR (Cyperus iria; [8]): 9.0
- herbicidal effect rating, CYPIR (Cyperus iria; [9]): 0.0
- herbicidal effect rating ORYSAT [2, 5]: 3.0
- herbicidal effect rating ORYSAT [2, 6]: 2.0
- herbicidal effect rating ORYSAT [2, 7]: 4.0
- herbicidal effect rating ORYSAT [2, 8]: 6.0
- herbicidal effect rating ORYSAT [2, 9]: 4.0
- herbicidal effect rating, MOOVA [3, 5]: 8.0
- herbicidal effect rating, MOOVA [3, 6]: 9.0
- herbicidal effect rating, MOOVA [3, 7]: 9.0
- herbicidal effect rating, MOOVA [3, 8]: 9.0
- herbicidal effect rating, MOOVA [3, 9]: 9.0
- herbicidal effect rating, CYPSE [4, 6]: 9.0
- herbicidal effect rating, CYPSE [4, 7]: 9.0
- herbicidal effect rating, CYPSE [4, 8]: 9.0
- herbicidal effect rating, CYPSE [4, 9]: 9.0

Compound: C=CCC(C#N)(CC=C)c1nsc2ccc(-n3c(=O)cc(C(F)(F)F)n(C)c3=O)cc12 [Example 580, 1,2-Benzisothiazole-3-acetonitrile, alpha,alpha-diallyl-5-[3,6-dihydro-3-methyl-2,6-dioxo-4-(trifluoromethyl)-1(2H)-pyrimidinyl]-]
- herbicidal effect rating, ECHORC [1, 11]: 8.5
- herbicidal effect rating, ECHORC [1, 12]: 9.0
- herbicidal effect rating, ECHORC [1, 13]: 9.0
- herbicidal effect rating, ECHORC [1, 10]: 9.0
- herbicidal effect rating, SAGPY (Sagittaria pygmaea, L.; [11]): 5.5
- herbicidal effect rating, SAGPY (Sagittaria pygmaea, L.; [12]): 8.0
- herbicidal effect rating, SAGPY (Sagittaria pygmaea, L.; [13]): 8.0
- herbicidal effect rating, SAGPY (Sagittaria pygmaea, L.; [10]): 8.5
- herbicidal effect rating, CYPIR (Cyperus iria; [11]): 3.0
- herbicidal effect rating, CYPIR (Cyperus iria; [12]): 9.0
- herbicidal effect rating, CYPIR (Cyperus iria; [13]): 9.0
- herbicidal effect rating, CYPIR (Cyperus iria; [10]): 9.0
- herbicidal effect rating ORYSAT [2, 11]: 1.5
- herbicidal effect rating ORYSAT [2, 12]: 4.0
- herbicidal effect rating ORYSAT [2, 13]: 4.0
- herbicidal effect rating ORYSAT [2, 10]: 6.5
- herbicidal effect rating, MOOVA [3, 11]: 4.5
- herbicidal effect rating, MOOVA [3, 12]: 9.0
- herbicidal effect rating, MOOVA [3, 13]: 9.0
- herbicidal effect rating, MOOVA [3, 10]: 9.0
- herbicidal effect rating, CYPSE [4, 11]: 5.5
- herbicidal effect rating, CYPSE [4, 12]: 9.0
- herbicidal effect rating, CYPSE [4, 13]: 9.0
- herbicidal effect rating, CYPSE [4, 10]: 8.5

Compound: COc1ccc(C)cc1-c1nsc2cc(F)c(-n3c(=O)cc(C(F)(F)F)n(C)c3=O)cc12 [Example 462, 2,4(1H,3H)-Pyrimidinedione, 3-[6-fluoro-3-(6-methoxy-m-tolyl)-1,2-benzisothiazol-5-yl]-1-methyl-6-(trifluoromethyl)-]
- ECHORC herbicidal rating [1, 14]: 9.0
- ECHORC herbicidal rating [1, 15]: 9.0
- ECHORC herbicidal rating [1, 16]: 9.0
- ECHORC herbicidal rating [1, 17]: 9.0
- SAGPY herbicidal rating (Sagittaria pygmaea, L.; [14]): 1.0
- SAGPY herbicidal rating (Sagittaria pygmaea, L.; [15]): 4.0
- SAGPY herbicidal rating (Sagittaria pygmaea, L.; [16]): 5.0
- SAGPY herbicidal rating (Sagittaria pygmaea, L.; [17]): 6.0
- CYPIR herbicidal rating (Cyperus iria; [14]): 9.0
- CYPIR herbicidal rating (Cyperus iria; [15]): 9.0
- CYPIR herbicidal rating (Cyperus iria; [16]): 9.0
- CYPIR herbicidal rating (Cyperus iria; [17]): 9.0
- ORYSAT herbicidal rating (rice tolerance) [2, 14]: 5.0
- ORYSAT herbicidal rating (rice tolerance) [2, 15]: 5.0
- ORYSAT herbicidal rating (rice tolerance) [2, 17]: 6.0
- MOOVA herbicidal rating [3, 14]: 9.0
- MOOVA herbicidal rating [3, 15]: 9.0
- MOOVA herbicidal rating [3, 16]: 9.0
- MOOVA herbicidal rating [3, 17]: 9.0
- CYPSE herbicidal rating [4, 15]: 3.0

Compound: CSCc1nsc2ccc(-n3c(=O)cc(C(F)(F)F)n(C)c3=O)cc12 [Example 21, 1-Methyl-3-{3-{(methylthio)methyl]-1,2-benzisothiazol-5-yl}-6-(trifluoromethyl)-2,4(1H,3H)-pyrimidinedione]
- herbicidal effect rating, ECHORC [1, 18]: 0.0
- herbicidal effect rating, ECHORC [1, 19]: 0.7
- herbicidal effect rating, ECHORC [1, 16]: 2.7
- herbicidal effect rating, ECHORC [1, 17]: 4.7
- herbicidal effect rating, SAGPY (Sagittaria pygmaea, L.; [18]): 0.0
- herbicidal effect rating, SAGPY (Sagittaria pygmaea, L.; [19]): 0.0
- herbicidal effect rating, SAGPY (Sagittaria pygmaea, L.; [16]): 0.0
- herbicidal effect rating, SAGPY (Sagittaria pygmaea, L.; [17]): 0.0
- herbicidal effect rating, CYPIR (Cyperus iria; [18]): 0.0
- herbicidal effect rating, CYPIR (Cyperus iria; [19]): 0.0
- herbicidal effect rating, CYPIR (Cyperus iria; [16]): 0.5
- herbicidal effect rating, CYPIR (Cyperus iria; [17]): 1.0
- herbicidal effect rating, ORYSAT (rice tolerance) [2, 18]: 1.7
- herbicidal effect rating, ORYSAT (rice tolerance) [2, 19]: 2.0
- herbicidal effect rating, ORYSAT (rice tolerance) [2, 16]: 2.3
- herbicidal effect rating, ORYSAT (rice tolerance) [2, 17]: 4.3
- herbicidal effect rating, MOOVA [3, 18]: 4.0
- herbicidal effect rating, MOOVA [3, 19]: 6.0
- herbicidal effect rating, MOOVA [3, 16]: 7.5
- herbicidal effect rating, MOOVA [3, 17]: 9.0
- herbicidal effect rating, CYPSE [4, 18]: 0.0
- herbicidal effect rating, CYPSE [4, 19]: 0.0
- herbicidal effect rating, CYPSE [4, 16]: 0.0
- herbicidal effect rating, CYPSE [4, 17]: 0.0
